Experimental data reported in ChEMBL document CHEMBL5291721, “A preclinical secondary pharmacology resource illuminates target-adverse drug reaction associations of marketed drugs” (Nat Commun, 2023).

How the values were obtained:
[1] = target: T1, Amine oxidase [flavin-containing] A (Homo sapiens, UniProt P21397); type: functional
T1 sequence (P21397 whole entry): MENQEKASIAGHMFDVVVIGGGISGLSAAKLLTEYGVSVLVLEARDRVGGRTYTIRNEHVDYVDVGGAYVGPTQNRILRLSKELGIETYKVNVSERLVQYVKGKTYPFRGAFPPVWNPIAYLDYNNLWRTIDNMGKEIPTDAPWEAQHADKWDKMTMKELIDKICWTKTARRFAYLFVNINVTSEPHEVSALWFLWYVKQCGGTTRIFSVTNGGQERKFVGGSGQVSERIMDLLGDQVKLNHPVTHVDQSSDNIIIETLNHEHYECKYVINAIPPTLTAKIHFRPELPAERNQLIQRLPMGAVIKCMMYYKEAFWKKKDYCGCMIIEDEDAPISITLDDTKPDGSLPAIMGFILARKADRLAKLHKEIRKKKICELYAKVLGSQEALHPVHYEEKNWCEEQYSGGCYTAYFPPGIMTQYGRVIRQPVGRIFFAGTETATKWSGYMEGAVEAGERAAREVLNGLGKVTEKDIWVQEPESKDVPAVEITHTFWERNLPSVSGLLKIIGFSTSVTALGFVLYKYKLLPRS

D(3) dopamine receptor = D(3) dopamine receptor (Homo sapiens, UniProt P35462)
[2] = target: Sodium-dependent noradrenaline transporter (Homo sapiens, UniProt P23975)
[3] = target: T2, 5-hydroxytryptamine receptor 1A (Homo sapiens, UniProt P08908)
T2 sequence (P08908 whole entry): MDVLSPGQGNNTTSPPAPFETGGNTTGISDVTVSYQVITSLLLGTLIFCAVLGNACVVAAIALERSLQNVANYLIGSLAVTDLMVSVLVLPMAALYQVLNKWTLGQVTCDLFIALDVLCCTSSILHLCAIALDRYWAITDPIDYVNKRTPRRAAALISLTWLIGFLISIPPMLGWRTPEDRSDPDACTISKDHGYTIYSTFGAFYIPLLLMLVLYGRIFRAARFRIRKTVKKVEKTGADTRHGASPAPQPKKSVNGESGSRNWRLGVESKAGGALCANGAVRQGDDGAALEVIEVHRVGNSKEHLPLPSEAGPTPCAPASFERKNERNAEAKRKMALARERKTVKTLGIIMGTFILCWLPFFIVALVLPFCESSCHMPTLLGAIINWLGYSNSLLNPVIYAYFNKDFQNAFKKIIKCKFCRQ

Thromboxane A2 receptor [4] = target: T3, Thromboxane A2 receptor (Homo sapiens, UniProt P21731); type: functional, cell-based
T3 sequence (P21731 whole entry): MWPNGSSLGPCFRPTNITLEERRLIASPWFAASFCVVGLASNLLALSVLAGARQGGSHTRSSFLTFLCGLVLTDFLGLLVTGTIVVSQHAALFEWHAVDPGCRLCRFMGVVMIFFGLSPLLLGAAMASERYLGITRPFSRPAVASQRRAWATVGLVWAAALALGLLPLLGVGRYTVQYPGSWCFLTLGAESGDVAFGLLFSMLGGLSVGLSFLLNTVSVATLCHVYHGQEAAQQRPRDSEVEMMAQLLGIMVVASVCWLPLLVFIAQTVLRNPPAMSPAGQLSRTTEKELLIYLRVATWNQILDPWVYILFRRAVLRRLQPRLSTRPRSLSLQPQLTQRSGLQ

Thromboxane A2 receptor [5] = target: T3, Thromboxane A2 receptor; type: functional, cell-based; remark: listed apart in the source
[6] = target: Prostaglandin G/H synthase 1 (Homo sapiens, UniProt P23219); type: functional
Note: assay procedure not described here.

Chain of D(3) dopamine receptor (P35462 whole entry): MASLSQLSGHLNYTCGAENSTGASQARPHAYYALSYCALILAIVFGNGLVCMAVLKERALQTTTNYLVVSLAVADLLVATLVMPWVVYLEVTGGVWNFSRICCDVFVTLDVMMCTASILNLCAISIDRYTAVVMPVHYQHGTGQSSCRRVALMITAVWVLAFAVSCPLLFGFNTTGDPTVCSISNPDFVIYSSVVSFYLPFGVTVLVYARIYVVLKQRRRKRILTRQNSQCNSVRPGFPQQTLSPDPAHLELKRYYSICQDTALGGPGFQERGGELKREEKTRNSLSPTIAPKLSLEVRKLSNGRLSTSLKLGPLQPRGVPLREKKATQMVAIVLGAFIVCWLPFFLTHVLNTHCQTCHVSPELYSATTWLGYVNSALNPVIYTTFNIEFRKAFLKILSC
Chain of Sodium-dependent noradrenaline transporter (P23975 whole entry): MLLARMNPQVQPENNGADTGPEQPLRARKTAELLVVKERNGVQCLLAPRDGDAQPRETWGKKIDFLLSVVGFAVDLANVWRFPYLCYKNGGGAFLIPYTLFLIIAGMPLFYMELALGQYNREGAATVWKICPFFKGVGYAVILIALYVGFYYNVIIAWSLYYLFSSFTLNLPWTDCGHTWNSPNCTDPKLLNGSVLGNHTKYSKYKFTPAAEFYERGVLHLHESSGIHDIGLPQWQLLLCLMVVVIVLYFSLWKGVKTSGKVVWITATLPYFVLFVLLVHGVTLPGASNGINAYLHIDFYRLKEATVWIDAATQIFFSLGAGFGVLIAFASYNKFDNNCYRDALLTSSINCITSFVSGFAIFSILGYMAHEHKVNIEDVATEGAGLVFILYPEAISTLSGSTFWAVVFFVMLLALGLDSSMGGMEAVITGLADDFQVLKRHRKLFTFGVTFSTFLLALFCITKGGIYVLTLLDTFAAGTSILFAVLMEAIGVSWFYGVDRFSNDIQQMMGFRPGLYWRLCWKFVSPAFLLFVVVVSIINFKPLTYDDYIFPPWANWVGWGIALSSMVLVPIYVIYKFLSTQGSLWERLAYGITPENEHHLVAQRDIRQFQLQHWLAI
Chain of Prostaglandin G/H synthase 1 (P23219 whole entry): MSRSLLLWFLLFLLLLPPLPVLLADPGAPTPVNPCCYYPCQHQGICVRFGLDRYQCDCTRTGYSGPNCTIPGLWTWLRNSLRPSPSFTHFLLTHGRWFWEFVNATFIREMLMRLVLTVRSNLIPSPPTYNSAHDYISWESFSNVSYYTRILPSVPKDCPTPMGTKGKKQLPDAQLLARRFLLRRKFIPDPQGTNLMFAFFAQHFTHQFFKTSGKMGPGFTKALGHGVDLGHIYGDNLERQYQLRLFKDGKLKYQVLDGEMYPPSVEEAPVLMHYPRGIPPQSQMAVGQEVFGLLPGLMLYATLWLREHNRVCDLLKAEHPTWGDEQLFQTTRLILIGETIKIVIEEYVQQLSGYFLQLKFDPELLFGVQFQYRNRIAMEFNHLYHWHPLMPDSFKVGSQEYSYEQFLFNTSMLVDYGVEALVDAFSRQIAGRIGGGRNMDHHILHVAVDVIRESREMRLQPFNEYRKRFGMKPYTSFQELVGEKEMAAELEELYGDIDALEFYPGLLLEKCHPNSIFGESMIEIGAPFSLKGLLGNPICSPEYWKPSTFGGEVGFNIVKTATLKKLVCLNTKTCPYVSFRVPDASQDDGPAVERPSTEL

SMILES	AC50 [1] [µM]	AC50 (D(3) dopamine receptor) [µM]	AC50 [2] [µM]	AC50 [3] [µM]	AC50 (Thromboxane A2 receptor [4]) [µM]	AC50 (Thromboxane A2 receptor [5]) [µM]	AC50 [6] [µM]
C[C@H]1CN(C[C@H](Cc2ccccc2)C(=O)NCC(=O)O)CC[C@@]1(C)c1cccc(O)c1 [ALVIMOPAN]	> 30	> 30	> 30	> 30	> 30	> 30	> 3
O=C(O)c1ccccc1 [BENZOIC ACID]	> 30	> 30	> 30	> 30	> 30	> 30	> 30
C[C@H]1O[C@@H](O[C@H]2CC[C@@]3(C)[C@H](CC[C@@H]4[C@@H]3C[C@@H](O)[C@]3(C)[C@@H](C5=CC(=O)OC5)CC[C@]43O)C2)C[C@H](O)[C@@H]1O[C@H]1C[C@H](O)[C@H](O[C@H]2C[C@H](O)[C@H](O[C@@H]3O[C@H](CO)[C@@H](O)[C@H](O)[C@H]3O)[C@@H](C)O2)[C@@H](C)O1 [DESLANOSIDE]	> 30	> 30	> 30	> 30	> 30	> 30	> 30
CN[C@@H]1[C@H](O[C@H]2[C@H](O[C@H]3[C@H](O)[C@@H](O)[C@H](NC(=N)N)[C@@H](O)[C@@H]3NC(=N)N)O[C@@H](C)[C@]2(O)CO)O[C@@H](CO)[C@H](O)[C@H]1O [DIHYDROSTREPTOMYCIN]	> 30	> 30	> 30	> 30	> 30	> 30	> 30
CC[C@H]1OC(=O)[C@H](C)[C@@H](O[C@H]2C[C@@](C)(OC)[C@@H](O)[C@H](C)O2)[C@H](C)[C@@H](O[C@@H]2O[C@H](C)C[C@H](N(C)C)[C@H]2O)[C@](C)(O)C[C@@H](C)[C@@H]2N[C@@H](COCCOC)O[C@H]([C@H]2C)[C@]1(C)O [DIRITHROMYCIN]	> 30	> 30	> 30	> 30	> 30	> 30	> 30
CCCCc1oc2ccc(NS(C)(=O)=O)cc2c1C(=O)c1ccc(OCCCN(CCCC)CCCC)cc1 [DRONEDARONE]	> 30	0.642	3.98	1.72	> 30	14.7	> 30
CC(C(=O)O)c1cccc(Oc2ccccc2)c1 (centres undefined) [FENOPROFEN]	> 30	> 30	> 30	> 30	> 30	> 30	13.5
CC(C)C(=O)Oc1ccc(CO)cc1[C@H](CCN(C(C)C)C(C)C)c1ccccc1 [FESOTERODINE]	> 30	> 30	> 30	> 30	> 30	> 30	> 30
CC1(C)O[C@@H]2C[C@H]3[C@@H]4C[C@H](F)C5=CC(=O)C=C[C@]5(C)[C@@]4(F)[C@@H](O)C[C@]3(C)[C@]2(C(=O)CO)O1 [FLUOCINOLONE ACETONIDE]	> 30	> 30	> 30	> 30	> 30	> 30	> 30
O=C(O)P(=O)(O)O [FOSCARNET]	> 30	> 30	> 30	> 30	> 30	> 30	> 30
C#C[C@]1(O)C=C[C@H]2[C@@H]3CCC4=CC(=O)CC[C@@H]4[C@H]3CC[C@@]21CC [GESTODENE]	> 30	> 30	> 30	> 30	> 30	> 30	> 30
COc1ccccc1OC1(C)OC(=O)c2ccccc2O1 (centres undefined) [GUAIMESAL]	> 30	> 30	> 30	> 30	> 30	> 30	> 30
N=C(N)N/N=C/c1c(Cl)cccc1Cl [GUANABENZ]	3.21	10.5	8.81	0.604	> 30	22.2	> 30
C[N+](C)(CCCCCC[N+](C)(C)C1c2ccccc2-c2ccccc21)C1c2ccccc2-c2ccccc21 [HEXAFLUORENIUM]	> 30	0.0671	1.44	0.868	> 30	> 30	> 30
CCCCC(CC)CN1CN(CC(CC)CCCC)CC(C)(N)C1 (centres undefined) [HEXETIDINE]	> 30	4.84	7.93	3.44	> 30	> 30	> 30
Cc1cc(=O)oc2cc(O)ccc12 [HYMECROMONE]	> 30	> 30	> 30	> 30	> 30	> 30	> 30
COc1c2occc2c(OC)c2c(=O)cc(C)oc12 [KHELLIN]	> 30	> 30	> 30	> 30	> 30	> 30	> 30
CC(C)[C@@H]1CC[C@@H](C)C[C@H]1O [LEVOMENTHOL]	> 30	> 30	> 30	> 30	> 30	> 30	> 30
COC(=O)[C@@H](N)Cc1ccc(O)c(O)c1 [MELEVODOPA]	> 30	> 30	> 30	> 30	> 30	> 30	> 30
C[N+]1(C)CCCC(OC(=O)C(O)(c2ccccc2)c2ccccc2)C1 (centres undefined) [MEPENZOLATE]	> 30	> 30	> 30	> 30	> 30	> 30	> 30
C=N[C@@H](C(=O)N[C@@H]1C(=O)N2[C@@H]1SC(C)(C)[C@@H]2C(=O)O)c1ccccc1 [METAMPICILLIN]	> 30	> 30	> 30	> 30	> 30	> 30	11.8
O=C(NNCS(=O)(=O)O)c1ccncc1 [METHANIAZIDE]	> 30	> 30	> 30	> 30	> 30	> 30	> 30
Cc1cc(=O)[nH]c(=S)[nH]1 [METHYLTHIOURACIL]	> 30	> 30	> 30	> 30	> 30	> 30	> 30
CN(C)c1ccc(O)c2c1C[C@H]1C[C@H]3[C@H](N(C)C)C(O)=C(C(N)=O)C(=O)[C@@]3(O)C(O)=C1C2=O [MINOCYCLINE]	> 30	> 30	> 30	> 30	> 30	> 30	2.5
CCNC(=O)/C=C(C)/C=C/C=C(C)/C=C/c1c(C)cc(OC)c(C)c1C [MOTRETINIDE]	> 30	> 30	24.1	> 30	> 30	> 30	12
C=CC(=O)Nc1cccc(Oc2nc(Nc3ccc(N4CCN(C)CC4)cc3)nc3ccsc23)c1 [OLMUTINIB]	> 30	0.453	12.3	2.44	> 30	4.35	> 30
COc1ccc2[nH]c([S+]([O-])Cc3ncc(C)c(OC)c3C)nc2c1 (centres undefined) [OMEPRAZOLE]	> 30	20.7	> 30	> 30	> 30	> 30	> 30
